We go through 18 compounds from patent publication US8106091B2, “Inhibitors of IKK-beta serine-threonine protein kinase” (Chroma Therapeutics Ltd., priority 2006, dated 2012).

For one assay, the target named is T1, IKBKB (IKKβ) (Homo sapiens, UniProt O14920).
T1 construct: purchased Invitrogen (Paisley, UK)
T1 sequence (O14920 1-756): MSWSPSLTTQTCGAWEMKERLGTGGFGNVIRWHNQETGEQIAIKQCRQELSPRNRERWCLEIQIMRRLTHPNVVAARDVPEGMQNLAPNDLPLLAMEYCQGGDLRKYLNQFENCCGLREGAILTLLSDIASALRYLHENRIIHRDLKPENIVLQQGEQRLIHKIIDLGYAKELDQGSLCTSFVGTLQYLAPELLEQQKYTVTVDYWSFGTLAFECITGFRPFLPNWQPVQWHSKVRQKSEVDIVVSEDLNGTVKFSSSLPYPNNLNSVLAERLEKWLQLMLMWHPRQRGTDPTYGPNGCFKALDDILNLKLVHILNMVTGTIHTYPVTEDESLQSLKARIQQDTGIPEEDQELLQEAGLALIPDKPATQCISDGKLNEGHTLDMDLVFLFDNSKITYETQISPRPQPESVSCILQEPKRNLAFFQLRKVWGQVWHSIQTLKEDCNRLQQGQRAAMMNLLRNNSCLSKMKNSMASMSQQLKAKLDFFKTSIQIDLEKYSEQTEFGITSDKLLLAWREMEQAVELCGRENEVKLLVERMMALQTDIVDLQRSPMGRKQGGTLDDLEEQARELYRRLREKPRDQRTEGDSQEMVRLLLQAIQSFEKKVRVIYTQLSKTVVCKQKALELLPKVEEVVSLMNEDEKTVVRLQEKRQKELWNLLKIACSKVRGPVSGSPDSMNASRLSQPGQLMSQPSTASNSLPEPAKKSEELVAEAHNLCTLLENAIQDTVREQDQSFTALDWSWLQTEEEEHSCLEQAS
The assay is described as follows: IKKβ enzyme assay (Z'-LYTE, Invitrogen). The class given is biochemical. Conditions: ATP at or close to Km; read-out: Inhibitor activity versus IKKβ. Here is the method:
The ability of compounds to inhibit IKKβ kinase activity was measured in an assay performed by Invitrogen (Paisley, UK). The Z′-LYTE™ biochemical assay employs a fluorescence-based, coupled-enzyme format and is based on the differential sensitivity of phosphorylated and non-phosphorylated peptides to proteolytic cleavage. The peptide substrate is labelled with two fluorophores—one at each end—that make up a FRET pair. In the primary reaction, the kinase transfers the gamma-phosphate of ATP to a single serine or threonine residue in a synthetic FRET-peptide. In the secondary reaction, a site-specific protease recognizes and cleaves non-phosphorylated FRET-peptides. Phosphorylation of FRET-peptides suppresses cleavage by the Development Reagent. Cleavage disrupts FRET between the donor (i.e., coumarin) and acceptor (i.e. fluorescein) fluorophores on the FRET-peptide, whereas uncleaved, phosphorylated FRET-peptides maintain FRET. A […] method, which calculates the ratio (the Emission Ratio) of donor emission to acceptor emission after excitation of the donor fluorophore at 400 nm, is used to quantitate reaction progress.
The final 10 μL Kinase Reaction consists of 0.9-8.0 ng IKBKB (IKKβ), 2 μM Ser/Thr 05 Peptide and ATP in 50 mM HEPES pH 7.5, 0.01% BRIJ-35, 10 mM MgCl2, 1 mM EGTA. The assay is performed at an ATP concentration at, or close to the Km. After the 60 minute Kinase Reaction incubation at room temperature, 5 μL of a 1:128 dilution of Development Reagent is added. The assay plate is incubated for a further 60 minutes at room temperature and read on a fluorescence plate reader.
Duplicate data points are generated from a ⅓ log dilution series of a stock solution of test compound in DMSO. Nine dilutions steps are made from a top concentration of 10 μM, and a ‘no compound’ blank is included. Data is collected and analysed using XLfit software from IDBS. The dose response curve is curve fitted to model number 205 (sigmoidal dose-response model). From the curve generated, the concentration giving 50% inhibition is determined and reported.

A further assay deals with THP-1 cells. In words: LPS-stimulation of THP-1 cells, TNF-α release. The class given is cell-based. Conditions: Homo sapiens, LPS 1 μg/ml, 6 hrs, inhibitor added 2 hrs before, read-out: Inhibitor activity versus THP-1 TNFα release. The procedure:
LPS-Stimulation of THP-1 Cells
THP-1 cells were plated in 100 μl at a density of 4×10^4 cells/well in V-bottomed 96 well tissue culture treated plates and incubated at 37° C. in 5% CO2 for 16 hrs. 2 hrs after the addition of the inhibitor in 100 μl of tissue culture media, the cells were stimulated with LPS (E coli strain 005:B5, Sigma) at a final concentration of 1 μg/ml and incubated at 37° C. in 5% CO2 for 6 hrs. TNF-α levels were measured from cell-free supernatants by sandwich ELISA (R&D Systems #QTA00B)

The test system of a further assay is human whole blood. The assay is described as follows: LPS-stimulation of human whole blood, TNF-α release. The assay is classed as cell-based. Conditions: LPS 100 ng/ml, 6 hrs, inhibitor added 2 hrs before, read-out: Inhibitor activity versus human whole blood TNFα release. Here is the method:
LPS-Stimulation of Human Whole Blood
Whole blood was taken by venous puncture using heparinised vacutainers (Becton Dickinson) and diluted in an equal volume of RPMI1640 tissue culture media (Sigma). 100 μl was plated in V-bottomed 96 well tissue culture treated plates. 2 hrs after the addition of the inhibitor in 100 μl of RPMI1640 media, the blood was stimulated with LPS (E coli strain 005:B5, Sigma) at a final concentration of 100 ng/ml and incubated at 37° C. in 5% CO2 for 6 hrs. TNF-α levels were measured from cell-free supernatants by sandwich ELISA (R&D Systems #QTA00B)

As to `Cc1cc(OCC[C@H](N)C(=O)OC2CCCC2)ccc1-c1cc(C(N)=O)c(NC(N)=O)s1` [Example 5, Cyclopentyl O-{4-[4-carbamoyl-5-(carbamoylamino)-2-thienyl]-3-methylphenyl}-L-homoserinate], the IC50 at IKBKB (IKKβ) was under 1000 nM; in the assay with THP-1 cells, under 1000 nM; with human whole blood, over 5000 nM.

For the compound `NC(=O)Nc1sc(-c2ccc(C[C@H](N)C(=O)OC3CCCC3)cc2)cc1C(N)=O` [Example 16, Cyclopentyl 4-[4-carbamoyl-5-(carbamoylamino)-2-thienyl]-L-phenylalaninate], the IC50 on IKBKB (IKKβ) was under 1000 nM; in the assay on THP-1 cells, under 1000 nM; in the assay on human whole blood it was 1000 to 5000 nM.

For the compound `NC(=O)Nc1sc(-c2ccc(/C=C/C[C@H](N)C(=O)OC3CCCC3)cc2)cc1C(N)=O` [Example 9, Cyclopentyl (2S,4E)-2-amino-5-{4-[4-carbamoyl-5-(carbamoylamino)-2-thienyl]phenyl}pent-4-enoate], the IC50 on IKBKB (IKKβ), in the assay on THP-1 cells and in the assay on human whole blood was under 1000 nM each time.

On to `NC(=O)Nc1sc(-c2ccc(OCCC[C@H](N)C(=O)OC3CCCC3)cc2)cc1C(N)=O` [Example 3, Cyclopentyl 5-{4-[4-carbamoyl-5-(carbamoylamino)-2-thienyl]phenoxy}-L-norvalinate], for which the IC50 on IKBKB (IKKβ) was under 1000 nM; in the assay on THP-1 cells, 1000 to 5000 nM; with human whole blood it was over 5000 nM.

Take `Cc1cc(-c2cc(C(N)=O)c(NC(N)=O)s2)ccc1OCC[C@H](N)C(=O)OC1CCCC1` [Example 6, Cyclopentyl O-{4-[4-carbamoyl-5-(carbamoylamino)-2-thienyl]-2-methylphenyl}-L-homoserinate]: the IC50 was under 1000 nM at IKBKB (IKKβ), under 1000 nM in the assay on THP-1 cells and over 5000 nM in the assay with human whole blood.

For `Cc1cc(-c2cc(C(N)=O)c(NC(N)=O)s2)ccc1/C=C/C[C@H](N)C(=O)OC1CCCC1` [Example 14, Cyclopentyl (2S,4E)-2-amino-5-{4-[4-carbamoyl-5-(carbamoylamino)-2-thienyl]-2-methylphenyl}pent-4-enoate], the IC50 at IKBKB (IKKβ), in the assay on THP-1 cells and in the assay with human whole blood was under 1000 nM each time.

Consider `NC(=O)Nc1sc(-c2ccc(OCC[C@H](N)C(=O)OC3CCCC3)cc2Cl)cc1C(N)=O` [Example 7, Cyclopentyl O-{4-[4-carbamoyl-5-(carbamoylamino)-2-thienyl]-3-chlorophenyl}-L-homoserinate], for which the IC50 on IKBKB (IKKβ) was under 1000 nM; with THP-1 cells, under 1000 nM; in the assay with human whole blood, over 5000 nM.

In the case of `NC(=O)Nc1sc(-c2ccc(OCCC[C@@H](N)C(=O)OC3CCCC3)cc2)cc1C(N)=O` [Example 4, Cyclopentyl 5-{4-[4-carbamoyl-5-(carbamoylamino)-2-thienyl]phenoxy}-D-norvalinate], the values for the IC50 at IKBKB (IKKβ) and with THP-1 cells were under 1000 nM and 1000 to 5000 nM, respectively.

In the case of `NC(=O)Nc1sc(-c2ccc(CCC[C@H](N)C(=O)OC3CCCC3)cc2)cc1C(N)=O` [Example 11, Cyclopentyl 5-{4-[4-carbamoyl-5-(carbamoylamino)-2-thienyl]phenyl}-L-norvalinate], the IC50 at IKBKB (IKKβ) was under 1000 nM; with THP-1 cells, under 1000 nM; with human whole blood, 1000 to 5000 nM.

With `NC(=O)Nc1sc(-c2ccc(OCC[C@@H](N)C(=O)OC3CCCC3)cc2)cc1C(N)=O` [Example 1, Cyclopentyl O-{4-[4-carbamoyl-5-(carbamoylamino)-2-thienyl]phenyl}-D-homoserinate], the IC50 is under 1000 nM at IKBKB (IKKβ), under 1000 nM in the assay on THP-1 cells and 1000 to 5000 nM in the assay on human whole blood.

Regarding `NC(=O)Nc1sc(-c2ccc(C#CC[C@H](N)C(=O)OC3CCCC3)cc2)cc1C(N)=O` [Example 15, Cyclopentyl (2S)-2-amino-5-{4-[4-carbamoyl-5-(carbamoylamino)-2-thienyl]phenyl}pent-4-ynoate], the results for the IC50 on IKBKB (IKKβ), in the assay with THP-1 cells and in the assay on human whole blood were under 1000 nM, 1000 to 5000 nM and over 5000 nM, respectively.

In the case of `NC(=O)Nc1sc(-c2ccc(COCC[C@H](N)C(=O)OC3CCCC3)cc2)cc1C(N)=O` [Example 17, Cyclopentyl O-{4-[4-carbamoyl-5-(carbamoylamino)-2-thienyl]benzyl}-L-homoserinate], the IC50 on IKBKB (IKKβ) is under 1000 nM; in the assay on THP-1 cells, 1000 to 5000 nM.

On to `NC(=O)Nc1sc(-c2ccc(/C=C/C[C@H](N)C(=O)OC3CCCC3)cc2Cl)cc1C(N)=O` [Example 13, Cyclopentyl (2S,4E)-2-amino-5-{4-[4-carbamoyl-5-(carbamoylamino)-2-thienyl]-3-chlorophenyl}pent-4-enoate], for which the IC50 on IKBKB (IKKβ) was under 1000 nM; in the assay on THP-1 cells it was under 1000 nM; in the assay on human whole blood, 1000 to 5000 nM.

On to `NC(=O)Nc1sc(-c2ccc(N(CC[C@H](N)C(=O)OC3CCCC3)Cc3ccccc3)cc2)cc1C(N)=O` [Example 21, Cyclopentyl (2S)-2-amino-4-(benzyl{4-[4-carbamoyl-5-(carbamoylamino)thiophen-2-yl]phenyl}amino)butanoate], for which the IC50 on IKBKB (IKKβ) was under 1000 nM; with THP-1 cells, 1000 to 5000 nM.

`NC(=O)Nc1sc(-c2ccc(/C=C/C[C@@H](N)C(=O)OC3CCCC3)cc2)cc1C(N)=O` [Example 10, Cyclopentyl (2R,4E)-2-amino-5-{4-[4-carbamoyl-5-(carbamoylamino)-2-thienyl]phenyl}pent-4-enoate]: the IC50 at IKBKB (IKKβ), in the assay on THP-1 cells and in the assay with human whole blood was under 1000 nM each time.

Turning to `NC(=O)Nc1sc(-c2ccc(/C=C\C[C@H](N)C(=O)OC3CCCC3)cc2)cc1C(N)=O` [Example 18, Cyclopentyl (2S,4Z)-2-amino-5-{4-[4-carbamoyl-5-(carbamoylamino)-2-thienyl]phenyl}pent-4-enoate], the IC50 on IKBKB (IKKβ) is under 1000 nM; with THP-1 cells, 1000 to 5000 nM; with human whole blood, 1000 to 5000 nM.

For the compound `NC(=O)Nc1sc(-c2ccc(OCC[C@H](N)C(=O)OC3CCCC3)cc2)cc1C(N)=O` [Example 2, Cyclopentyl O-{4-[4-carbamoyl-5-(carbamoylamino)-2-thienyl]phenyl}-L-homoserinate], the figures for the IC50 on IKBKB (IKKβ) and in the assay with THP-1 cells were under 1000 nM and 1000 to 5000 nM, respectively.

Take `NC(=O)Nc1sc(-c2ccc(OCC[C@H](NC3CCCCC3)C(=O)OC3CCCC3)cc2)cc1C(N)=O` [Example 19, Cyclopentyl O-{4-[4-carbamoyl-5-(carbamoylamino)thiophen-2-yl]phenyl}-N-cyclohexyl-L-homoserinate]: the IC50 on IKBKB (IKKβ) is under 1000 nM; with THP-1 cells it was over 5000 nM.
